# Measured values: patent US20140221286A1, “SODIUM CHANNEL BLOCKERS REDUCE GLUCAGON SECRETION” (Gilead Sciences, Inc., priority 2011, published 2014)
# How the values were obtained:
# α-TC1 clone 9 cells = assay type: cell-based; details: for Glucagon Secretion % Inhibition: veratridine-induced (30 μM for 1 hour), at a given concentration (not given)
# Description: (§1) Voltage-dependent block (VDB) of […] was determined by whole-cell voltage-clamp recordings of sodium current using a QPatch 16× automated electrophysiological system in HEK 293 cells overexpressing Nav 1.3 and Nav 1.7 sodium channels, respectively. VDB of peak current was measured using an 8 s conditioning prepulse (to -55 mV for NaV1.3 and to −60 mV for […]) followed by a test pulse (0 mV, 20 ms). Currents are normalized to the peak current recorded in the absence of drug and expressed as percent inhibition. […] Glucagon secretion in the cells was induced by the treatment with veratridine at 30 μM for 1 hour in Krebs-Ringer buffer containing 0.1% BSA. Percent inhibition of glucagon secretion by Na channel blockers was calculated from the reduction of veratridine-induced glucagon secretion in the absence of drug.
# Cells were seeded at 0.4×10^5/well in 96-well plates and allowed to recover for 1 day. The media was then changed to serum-free DMEM and incubated overnight. Cells were then treated with sodium-channel blockers in the presence of veratridine (15 μM) in Krebs-Ringer buffer containing 0.1% BSA and 3 mM glucose for 1 h. Supernatants were collected and stored at −80° C. until analysis. Glucagon levels were measured by an ELISA kit.
# hNaV1.3 = biological target: T1, hNaV1.3 (Homo sapiens, UniProt Q9NY46); assay: Voltage-dependent block (VDB) of hNaV1.3, QPatch whole-cell voltage-clamp in HEK-293 cells; assay type: cell-based; details: 8 s prepulse to -55 mV; at a given concentration (not given)
# T1 construct: (Vanderbilt University, Nashville, Tenn.)
# Description: as §1
# (Vanderbilt University, Nashville, Tenn.). The cells were continuously maintained in a humidified, 5% CO2 atmosphere at 37° C. in DMEM high glucose growth medium supplemented with 10% FBS, 2 mM L-glutamine, 100 U/mL penicillin, 100 μg/mL streptomycin, 1 mg/mL G418 and 3 μg/mL puromycin.
# (§2) Whole-cell voltage-clamp recordings were used to measure the activity of test compounds against hNaV1.3 and hNaV1.7. Sodium currents were recorded at room temperature using a QPatch 16× automated electrophysiological system (Sophion Bioscience, Copenhagen, Denmark). Cells were washed with PBS and then incubated with Detachin for 2 minutes at room temperature. Cells were then resuspended in growth media, pelleted by centrifugation and resuspended in CHO-S-SFM II serum free media supplemented with 100 U/mL penicillin, 100 μg/mL streptomycin and 10 mM HEPES. The cells were allowed to recover for 30 min at room temperature with constant stirring and then loaded into the QPatch cell holder.
# (§3) The cells were loaded into primed single hole (2 MΩ) large QPlates and the whole-cell configuration was established using the default protocol. Cells were allowed to stabilize for 10 min after establishment of the whole-cell configuration before current was measured. […] All currents are low-pass Bessel filtered at 5 kHz and digitized at 50 kHz.
# (§4) Specific voltage-clamp protocols assessing voltage-dependent block (VDB, also termed state-dependent block) are used. VDB of peak current was measured following an 8 s conditioning prepulse (to -55 mV for NaV1.3 and to −60 mV for NaV1.7) followed by a test pulse to 0 mV (20 ms). An interpulse (−120 mV, 10 ms) was used to recover non-drug bound channels from fast inactivation. The prepulse potential was determined by the steady-state inactivation curves for NaV1.3 and NaV1.7. […] Multiple applications of drug were used to ensure complete solution exchange and the cells were allowed to stabilize in the drug containing solution for two minutes. Currents were normalized to the peak current recorded in the absence of drug and expressed as percent inhibition.
# hNaV1.7 = hNaV1.7 (Homo sapiens, UniProt Q15858); assay: Voltage-dependent block (VDB) of hNaV1.7, QPatch whole-cell voltage-clamp in HEK-293 cells; assay type: cell-based; details: 8 s prepulse to −60 mV; at a given concentration (not given)
# Description: as §1
# The cells were continuously maintained in a humidified, 5% CO2 atmosphere at 37° C. in MEM growth medium supplemented with 10% FBS, 2 mM L-glutamine, 100 U/mL penicillin, 100 μg/mL streptomycin, 0.6 mg/mL G418 and 2 μg/mL blastocydin.
# as §2, §3, §4
# rat pancreatic islets [1] = assay: Glucagon secretion in rat pancreatic islets under low glucose (3 mM), ELISA; assay type: cell-based
# rat pancreatic islets [2] = assay: Veratridine-induced glucagon secretion in rat pancreatic islets; assay type: cell-based
# human pancreatic islets = assay: Veratridine-induced glucagon secretion in human pancreatic islets; assay type: cell-based; details: veratridine 30 μM
# ZDF diabetic rats = assay: ZDF diabetic rats, animal model of type 2 diabetes; assay type: in vivo, rat
# Description: All sections from fluorescent staining were viewed under fluorescent microscope and the stained areas were digitally photographed at a magnification of 20×. The images taken at different magnification were normalized using the standard ruler grade (S1 Finder Graticule, 68040, Electron Microscopy Science, Hatfield, Pa.). Analyses of islet areas and entire section areas were performed using ImageJ software (NIH, MD). Three sections from each of 6 animals per treatment group were analyzed. Data are presented as mean±SEM. *, p<0.05; **, p<0.01; ***, p<0.001 by One-way ANOVA.
# Male ZDF Leprfa/Crl rats were received at 5 weeks of age from Charles River Laboratories Inc., (Wilmington, Mass.) and were acclimated until study initiation at 6 weeks of age. Drugs were given to the animals in Purina 5008 for 10 weeks at doses approximately 170 mg/kg/d of ranolazine, 0.6 mg/kg/d of compound A and 30 mg/kg/d of sitagliptin as positive control. Fasting (12-14 h fast) and non-fasting blood samples were obtained by tail-nick and blood glucose was measured using a Freestyle Lite glucose meter (Abbott Laboratories Inc., Abbott Park, Ill.). HbA1c levels were monitored every other week. Twenty four hour water consumption as surrogate marker for diabetes for each rat was measured at least once per week.
# T1 sequence (Q9NY46 1-1951 isoform Q9NY46-4): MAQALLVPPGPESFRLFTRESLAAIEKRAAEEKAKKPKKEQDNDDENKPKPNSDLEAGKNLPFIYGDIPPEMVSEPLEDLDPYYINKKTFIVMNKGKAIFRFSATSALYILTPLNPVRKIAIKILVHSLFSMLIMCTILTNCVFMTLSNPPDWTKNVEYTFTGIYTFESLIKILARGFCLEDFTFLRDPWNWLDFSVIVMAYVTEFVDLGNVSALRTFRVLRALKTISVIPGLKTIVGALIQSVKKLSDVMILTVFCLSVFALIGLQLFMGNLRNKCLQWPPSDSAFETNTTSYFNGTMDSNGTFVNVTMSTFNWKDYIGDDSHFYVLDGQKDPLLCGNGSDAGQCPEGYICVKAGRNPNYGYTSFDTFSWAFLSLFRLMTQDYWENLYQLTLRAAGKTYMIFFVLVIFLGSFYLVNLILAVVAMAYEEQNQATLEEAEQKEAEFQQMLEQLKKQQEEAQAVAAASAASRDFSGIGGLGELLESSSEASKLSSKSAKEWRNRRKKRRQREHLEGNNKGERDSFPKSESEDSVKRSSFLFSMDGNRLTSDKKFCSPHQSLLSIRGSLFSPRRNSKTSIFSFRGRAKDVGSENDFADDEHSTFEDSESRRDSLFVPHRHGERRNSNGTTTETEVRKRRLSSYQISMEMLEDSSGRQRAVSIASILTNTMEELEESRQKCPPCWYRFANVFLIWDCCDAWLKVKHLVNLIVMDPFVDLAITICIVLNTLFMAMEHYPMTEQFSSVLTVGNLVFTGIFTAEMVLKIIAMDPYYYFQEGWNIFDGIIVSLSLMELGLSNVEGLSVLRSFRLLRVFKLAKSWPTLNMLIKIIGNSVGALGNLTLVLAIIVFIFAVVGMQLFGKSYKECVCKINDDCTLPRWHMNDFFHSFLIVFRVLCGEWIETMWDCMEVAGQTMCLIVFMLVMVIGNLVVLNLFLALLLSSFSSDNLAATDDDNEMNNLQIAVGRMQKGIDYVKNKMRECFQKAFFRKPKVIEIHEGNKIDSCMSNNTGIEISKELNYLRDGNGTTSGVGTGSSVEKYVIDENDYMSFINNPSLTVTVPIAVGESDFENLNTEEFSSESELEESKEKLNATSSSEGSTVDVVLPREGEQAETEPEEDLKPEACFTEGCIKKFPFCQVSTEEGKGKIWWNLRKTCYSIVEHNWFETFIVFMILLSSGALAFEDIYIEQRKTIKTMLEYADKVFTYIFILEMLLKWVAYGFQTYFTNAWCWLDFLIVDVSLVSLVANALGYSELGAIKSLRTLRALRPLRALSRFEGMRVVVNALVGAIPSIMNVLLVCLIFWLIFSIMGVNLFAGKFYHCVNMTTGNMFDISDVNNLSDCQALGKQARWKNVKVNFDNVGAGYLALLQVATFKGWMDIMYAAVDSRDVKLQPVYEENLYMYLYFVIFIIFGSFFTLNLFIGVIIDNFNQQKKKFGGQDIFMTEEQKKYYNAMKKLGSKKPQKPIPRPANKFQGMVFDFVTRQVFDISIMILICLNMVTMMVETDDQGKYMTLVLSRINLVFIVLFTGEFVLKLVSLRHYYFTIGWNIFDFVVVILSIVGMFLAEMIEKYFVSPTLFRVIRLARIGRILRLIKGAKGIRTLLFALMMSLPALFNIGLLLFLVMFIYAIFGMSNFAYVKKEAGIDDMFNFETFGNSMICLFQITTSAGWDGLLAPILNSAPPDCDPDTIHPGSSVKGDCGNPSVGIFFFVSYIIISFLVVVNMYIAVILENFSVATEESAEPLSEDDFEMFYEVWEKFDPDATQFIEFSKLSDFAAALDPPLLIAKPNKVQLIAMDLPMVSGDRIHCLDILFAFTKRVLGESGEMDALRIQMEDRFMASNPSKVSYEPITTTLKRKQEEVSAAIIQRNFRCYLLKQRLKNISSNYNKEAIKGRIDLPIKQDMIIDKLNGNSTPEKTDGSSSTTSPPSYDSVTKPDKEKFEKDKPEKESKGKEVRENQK
# T1 sequence (Q07699 19-218 partner): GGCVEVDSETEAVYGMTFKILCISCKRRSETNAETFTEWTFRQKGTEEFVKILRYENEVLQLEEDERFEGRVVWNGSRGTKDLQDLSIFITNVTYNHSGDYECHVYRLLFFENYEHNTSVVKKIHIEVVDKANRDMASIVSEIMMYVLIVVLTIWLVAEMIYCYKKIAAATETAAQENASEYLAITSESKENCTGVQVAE
# T1 sequence (O60939 30-215 partner): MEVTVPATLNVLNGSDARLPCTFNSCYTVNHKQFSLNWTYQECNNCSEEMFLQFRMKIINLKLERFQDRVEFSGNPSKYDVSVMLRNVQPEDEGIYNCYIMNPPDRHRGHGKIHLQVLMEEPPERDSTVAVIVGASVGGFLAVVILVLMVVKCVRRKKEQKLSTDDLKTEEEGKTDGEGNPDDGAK
# Sequence of hNaV1.7 (Q15858 1-1977 isoform Q15858-3): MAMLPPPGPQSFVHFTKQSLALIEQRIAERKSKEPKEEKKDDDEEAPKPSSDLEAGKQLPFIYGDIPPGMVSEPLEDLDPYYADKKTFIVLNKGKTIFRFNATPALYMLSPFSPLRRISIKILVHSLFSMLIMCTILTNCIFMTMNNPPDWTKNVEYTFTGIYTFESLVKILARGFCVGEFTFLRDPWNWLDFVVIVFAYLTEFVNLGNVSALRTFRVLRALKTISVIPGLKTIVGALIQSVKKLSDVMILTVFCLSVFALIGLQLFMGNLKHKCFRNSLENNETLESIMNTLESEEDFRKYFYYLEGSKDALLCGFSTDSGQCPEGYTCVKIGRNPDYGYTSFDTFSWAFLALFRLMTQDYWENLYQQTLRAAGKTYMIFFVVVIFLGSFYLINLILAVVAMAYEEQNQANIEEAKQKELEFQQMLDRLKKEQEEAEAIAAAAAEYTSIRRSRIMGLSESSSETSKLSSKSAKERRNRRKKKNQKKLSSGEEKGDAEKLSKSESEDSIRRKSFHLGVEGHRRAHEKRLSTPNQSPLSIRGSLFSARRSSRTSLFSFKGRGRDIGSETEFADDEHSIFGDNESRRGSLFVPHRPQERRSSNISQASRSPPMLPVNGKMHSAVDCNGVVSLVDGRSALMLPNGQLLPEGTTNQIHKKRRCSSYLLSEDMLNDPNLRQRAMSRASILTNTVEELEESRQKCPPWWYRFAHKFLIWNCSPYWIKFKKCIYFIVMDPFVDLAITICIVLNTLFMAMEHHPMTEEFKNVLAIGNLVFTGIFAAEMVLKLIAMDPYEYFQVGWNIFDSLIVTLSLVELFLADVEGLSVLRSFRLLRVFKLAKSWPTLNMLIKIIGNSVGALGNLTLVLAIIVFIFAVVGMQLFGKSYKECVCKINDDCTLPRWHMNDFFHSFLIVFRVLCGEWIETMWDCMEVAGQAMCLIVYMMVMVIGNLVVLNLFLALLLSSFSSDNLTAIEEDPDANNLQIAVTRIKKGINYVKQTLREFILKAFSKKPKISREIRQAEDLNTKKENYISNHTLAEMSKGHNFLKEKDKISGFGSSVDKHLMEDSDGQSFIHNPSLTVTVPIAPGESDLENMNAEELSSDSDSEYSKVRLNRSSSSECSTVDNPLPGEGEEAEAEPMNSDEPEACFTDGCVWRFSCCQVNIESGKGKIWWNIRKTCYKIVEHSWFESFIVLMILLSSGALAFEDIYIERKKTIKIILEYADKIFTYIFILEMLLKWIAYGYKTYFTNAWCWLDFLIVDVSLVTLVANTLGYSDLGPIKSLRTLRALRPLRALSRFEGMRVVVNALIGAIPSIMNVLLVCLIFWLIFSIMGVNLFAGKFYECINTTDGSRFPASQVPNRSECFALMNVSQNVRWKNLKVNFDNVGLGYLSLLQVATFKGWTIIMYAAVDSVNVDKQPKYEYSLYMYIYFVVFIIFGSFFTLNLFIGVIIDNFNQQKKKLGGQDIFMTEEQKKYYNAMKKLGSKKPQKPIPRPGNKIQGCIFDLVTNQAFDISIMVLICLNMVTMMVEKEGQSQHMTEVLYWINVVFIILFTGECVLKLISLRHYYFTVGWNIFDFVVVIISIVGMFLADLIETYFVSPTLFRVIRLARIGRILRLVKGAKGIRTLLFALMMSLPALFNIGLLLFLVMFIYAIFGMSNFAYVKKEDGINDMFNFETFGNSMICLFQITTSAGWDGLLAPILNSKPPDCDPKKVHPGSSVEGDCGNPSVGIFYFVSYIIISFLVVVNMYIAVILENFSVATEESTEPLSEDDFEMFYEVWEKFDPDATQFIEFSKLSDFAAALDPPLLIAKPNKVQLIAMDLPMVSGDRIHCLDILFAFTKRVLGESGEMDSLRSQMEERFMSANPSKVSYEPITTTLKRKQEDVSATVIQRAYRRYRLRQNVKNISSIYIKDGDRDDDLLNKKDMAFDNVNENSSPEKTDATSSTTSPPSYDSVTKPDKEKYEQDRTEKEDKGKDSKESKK
# Sequence of hNaV1.7 (Q07699 19-218 partner): as the sequence (Q07699 19-218 partner) above
structure (smiles),measurement,setting,value
"O=C(NCc1ccc(C(F)(F)F)c(Cl)c1)c1ccc(S(=O)(=O)Nc2ncc(Cl)s2)cc1 [C, N-(3-chloro-4-(trifluoromethyl)benzyl)-4-(N-(5-chlorothiazol-2-yl)sulfamoyl)benzamide]",Glucagon Secretion % Inhibition,α-TC1 clone 9 cells,41%
same,hNav1.3 VDB % Inhibition,hNaV1.3,92.16%
same,hNav1.7 VDB % Inhibition,hNaV1.7,7.81%
"FC(F)(F)Oc1ccc(-c2ccc3nnc(Oc4ccccc4)n3c2)cc1 [D, 3-phenoxy-6-(4-(trifluoromethoxy)phenyl)-[1,2,4]triazolo[4,3-a]pyridine]",Glucagon Secretion % Inhibition,α-TC1 clone 9 cells,33.75%
same,hNav1.3 VDB % Inhibition,hNaV1.3,49.35%
same,hNav1.7 VDB % Inhibition,hNaV1.7,89.74%
"CC(C)(C)OC(=O)N[C@H](Cc1ccccc1)C(=O)N[C@@H]1CCc2ccccc2N(CC(F)(F)F)C1 [E, tert-butyl (R)-1-oxo-3-phenyl-1-((R)-1-(2,2,2-trifluoroethyl)-2,3,4,5-tetrahydro-1H-benzo[b]azepin-3-ylamino)propan-2-ylcarbamate]",Glucagon Secretion % Inhibition,α-TC1 clone 9 cells,34.53%
same,hNav1.3 VDB % Inhibition,hNaV1.3,23.18%
same,hNav1.7 VDB % Inhibition,hNaV1.7,23.73%
"COCC(F)(F)c1nnc2ccc(-c3ccc(Oc4ccc(Cl)cc4)cc3)cn12 [F, 6-(4-(4-chlorophenoxy)phenyl)-3-(1,1-difluoro-2-methoxyethyl)-[1,2,4]triazolo[4,3-a]pyridine]",Glucagon Secretion % Inhibition,α-TC1 clone 9 cells,4%
same,hNav1.3 VDB % Inhibition,hNaV1.3,2.32%
same,hNav1.7 VDB % Inhibition,hNaV1.7,14.72%
"CS(=O)(=O)Nc1ccc(-c2ccc(Cl)c(C(F)(F)F)c2)c(Cl)c1 [G, N-(2,4′-dichloro-3′-(trifluoromethyl)biphenyl-4-yl)methanesulfonamide]",Glucagon Secretion % Inhibition,α-TC1 clone 9 cells,3.5%
same,hNav1.3 VDB % Inhibition,hNaV1.3,4.01%
same,hNav1.7 VDB % Inhibition,hNaV1.7,6.04%
"NC1=N[C@H](O)[C@H]2[C@H]3O[C@]4(O)O[C@@H]([C@@H](O)[C@@]2(N1)[C@@H]4O)[C@]3(O)CO [TTX, tetrodotoxin]",maximal reduction of glucagon secretion as compared to the vehicle control,rat pancreatic islets [1],47±6%
same,reduction of veratridine-induced glucagon secretion (in words),rat pancreatic islets [2],concentration-dependently reduced
same,reduction of veratridine-induced increase of glucagon secretion,α-TC1 clone 9 cells,100±6%
COc1ccc(C(=O)O[C@H]2CC[C@@]3(C)[C@@H]4CC[C@H]5[C@]6(O)C[C@H](O)[C@@]7(O)[C@@H](CN8C[C@@H](C)CC[C@H]8[C@@]7(C)O)[C@]6(O)C[C@@]53O[C@]24O)cc1OC [Veratridine],increase in glucagon secretion,rat pancreatic islets [2]; veratridine at 30 μM,more than 3 fold
same,increase in glucagon secretion,human pancreatic islets,~9 fold
N[C@@H](CC(=O)N1CCn2c(nnc2C(F)(F)F)C1)Cc1cc(F)c(F)cc1F [sitagliptin],insulin staining per islet,ZDF diabetic rats; 10 weeks treatment,90.0±2.1%
same,islet area/pancreas area,ZDF diabetic rats; 10 weeks treatment,0.98±0.3%
same,staining of glucagon per islet versus vehicle,ZDF diabetic rats; 10 weeks treatment,significantly less
same,water consumption (surrogate marker for diabetes),"ZDF diabetic rats; in Purina 5008 diet, during diabetes development",significantly prevented the increase
same,HbA1c levels versus vehicle group,"ZDF diabetic rats; in Purina 5008 diet, weeks 4, 6 and 8",significantly lower
same,fasting plasma glucose levels versus vehicle,"ZDF diabetic rats; in Purina 5008 diet, weeks 7 and 9",significantly lower
